Test results published in US6352722B1, “Derivatized carbohydrates, compositions comprised thereof and methods of use thereof” (Quadrant Holdings Cambridge Limited, priority 1997, dated 2002).

Columns and labels:
[1] = Glass transition temperature (Tg) of derivatized carbohydrates, by DSC; type: physicochemical
Excerpt: The reaction product can be characterized structurally by methods known in the art, including, but not limited to, nuclear magnetic resonance spectroscopy (NMR) and its material science properties characterized by differential scanning calorimetry (DSC). The characteristic melting points and Tgs (glass transition temperatures) for the derivatized carbohydrates can also be determined by DSC and other methods known in the art.
(§1) The carbohydrate derivatives were routinely synthesized by standard esterification of the carbohydrate with the chloride of the desired hydrocarbon side chain under anhydrous conditions and the resulting derivatives purified by standard techniques of solvent extraction and re-crystallization. For example, trehalose octa-3,3-dimethylbutyrate was synthesized by reacting 3,3,-dimethylbutyroyl chloride with trehalose in anhydrous pyridine, followed by extraction with ether, hydrochloric acid, potassium carbonate solution and water and finally re-crystallized twice from alcohol to yield colorless, needle-like crystals (˜80% yield) of m.pt 138-140° C., αD 112°. Trehalose hexa-3,3-dimethylbutyrate (THEX) can be prepared by protecting the 6,6′-hydroxy group of trehalose with a bulky group such as trityl or t-butyldiphenylsilyl, for example by heating trehalose and trityl chloride in pyridine. The 6,6′-ditrityltrehalose can be acylated with 3,3-dimethylbutyroyl chloride in pyridine to give 6,6′-ditritylhexa-3,3-dimethylbutyryltrehalose. The trityl group can be removed by strong acid, for example hydrogen bromide in acetic acid, to give THEX. TACT can be prepared by acylating THEX with acetic anhydride in pyridine. Suitable work-up yields the HDC in crystalline form. The physical characteristics, melting points and glass transition temperatures (Tg, ° C.) of selected carbohydrate derivatives are shown in Tables 1-5.

[2] = Glass formation, crystallization and glass stability above ambient temperature; type: physicochemical
Excerpt: In the usual process to form a vitreous glass, a high temperature melt is quenched (cooled quickly) to solidify without crystallization to a vitreous glass. Most glassy materials can theoretically quench to a vitreous glass, however, factors such as low melt viscosity, thermodynamically favorable crystalline states and thermal degradation, limit their potential to form vitreous rather than crystalline solids.
as §1
This unusual property of branched-chain derivatives enables more hydrophobic derivatives (compared to the acetates) to be prepared, which permits further reduction of drug release rates for longer term applications.

[3] = Tg of HDC formulations with incorporated active; type: physicochemical
Excerpt: (§2) The model hydrophilic drug, diltiazem hydrochloride (“hydrophilic active”), was incorporated (10% loading) into solid vehicles of the single straight chain HDC trehalose octaacetate or the branched chain HDCs trehalose octa-3,3, dimethylbutyrate and trehalose octapivalate as well as composite formulations (1:1 ratio) of the two branched-chain HDCs or the straight chain HDC trehalose octaacetate and the branched chain HDC trehalose octapivalate, by quenching from the melt. Release of the active from the HDC solid dose delivery vehicle was assessed using an in vitro USP (volume 23) type 2 dissolution test in saline containing 0.1% sodium cholate as the dissolution medium.
The model hydrophilic drug diltiazem hydrochloride was also incorporated (5% loading) into solid vehicles of the single branched chain HDCs trehalose diisobutyrate hexaacetate and trehalose octapivalate and composite formulations (1:1 ratio) of the two branched-chain HDCs by solvent removal by rotary evaporation, in a Buchi Rotavapor R-124, of a 20% solution of active plus HDCs in a dichloromethane: acetone mixed solvent (9:1 ratio) system. […] (trehalose octapivalate) of the single branched-chain HDC formulations of active.
(§3) The model hydrophobic steroid fluticasone propionate (“hydrophobic active”) was incorporated (5% loading) into solid vehicles of the single straight chain HDC trehalose octaacetate or the branched chain HDCs trehalose octa-3,3, dimethylbutyrate and trehalose dipropanoate hexaacetate and composite formulations (1:1 ratio) of the two branched-chain HDCs by either quenching from the melt or solvent evaporation by rotary evaporation. Melt incorporation was carried out by melting the HDCs at 150-170° C. and dissolving the active in the melt at 120-140° C. Rotary evaporation was carried out using a Buchi Rotavapor R-124 using a 20% solution of active plus HDCs in a dichloromethane: acetone mixed solvent (9:1 ratio) system. The hydrophobic active was also incorporated into solid vehicles of the branched chain HDCs, trehalose octapivalate, trehalose diisobutyrate hexaacetate and lactose isobutyrate heptaacetate, either by quenching from the melt or solvent evaporation by rotary evaporation. Release of hydrophobic active from the HDC solid dose delivery vehicle was assessed using an in vitro USP (volume 23) type 2 dissolution test in saline containing 0.1% sodium cholate as the dissolution medium.
(§4) As an example of a polypeptide drug, the polypeptide hormone insulin (“polypeptide active”) was incorporated (10% loading) into solid vehicles of the single branched chain HDCs trehalose diisobutyrate hexaacetate and trehalose hexapivalate and composite formulations of the branched chain HDCs trehalose diisobutyrate hexaacetate and trehalose octapivalate (8:1 ratio) by solvent removal by lyophilization of a 20% solution of insulin plus HDCs in dimethylsulfoxide. […] Release of active from the HDC solid dose delivery vehicle was assessed using an in vitro USP (volume 23) type 2 dissolution test in saline containing 0.1% sodium cholate as the dissolution medium.

[4] = In vitro USP (volume 23) type 2 dissolution test, release of active from HDC solid vehicle; type: physicochemical; conditions: saline with 0.1% sodium cholate; for release of fluticasone propionate from single HDC formulation: compared to trehalose octaacetate formulation Q1 (FIG. 3)
Excerpt: as §2, §3, §4

[5] = Devitrification / glass stability when immersed in aqueous media; conditions: immersed in saline medium at 37° C.
[6] = derivatized carbohydrate alone, Tables 1-4
[7] = derivatized carbohydrate without active, Table 5
[8] = hydrophobic active (fluticasone propionate, 5% loading) incorporated

Row | Compound | Tg(° C.) [1, 6] [°C] | Tg(° C.) [1, 7] [°C] | Tg (° C.) with active incorporated [3, 8] [°C] | also measured
1 | CC(=O)OCC1OC(OC2C(COC(C)=O)OC(OC(C)=O)C(OC(C)=O)C2OC(C)=O)C(OC(C)=O)C(OC(C)=O)C1OC(C)=O (stereo not drawn) [β-Cellobiose octaacetate, reference compound] | 53 | – | – | COMMENT: glass formation / glass stability above ambient temperature [2]: Good glass former
2 | CC(C)(C)C(=O)OC[C@H]1O[C@H](O[C@H]2O[C@H](COC(=O)C(C)(C)C)[C@@H](OC(=O)C(C)(C)C)[C@H](OC(=O)C(C)(C)C)[C@H]2OC(=O)C(C)(C)C)[C@H](OC(=O)C(C)(C)C)[C@@H](OC(=O)C(C)(C)C)[C@@H]1OC(=O)C(C)(C)C [Trehalose octapivalate] | 81 | 80 | 80 | Tg (° C.) with active incorporated ([3]; hydrophilic active (diltiazem hydrochloride) incorporated): 83.7 °C; release of fluticasone propionate from single HDC formulation [4]: much slower release
3 | CC(=O)OCC1OC(OC2OC(COC(C)=O)C(OC(C)=O)C(OC(C)=O)C2OC(C)=O)C(OC(C)=O)C(OC(C)=O)C1OC(C)=O (stereo not drawn) [Trehalose octaacetate, reference compound] | 55 | 50 | 53 | release of active (insulin) ([4]; after 1 hour in the dissolution assay): 88%
4 | CC(=O)OC[C@H]1O[C@@H](O[C@H]2[C@H](OC(C)=O)[C@@H](OC(C)=O)C(OC(=O)C(C)C)O[C@@H]2COC(C)=O)[C@H](OC(C)=O)[C@@H](OC(C)=O)[C@H]1OC(C)=O (stereo partly drawn) [Lactose isobutyrate heptaacetate] | 60 | 60 | 59 | crystallization from solution ([2]; blend: small amount of the corresponding anomer added): fails to crystallize; crystallization from solution ([2]; pure α,β anomers): crystallize from solution
5 | Trehalose hexa-3,3-dimethylbutyrate | 64 | – | – | stability of the glassy state [5]: stable in the glassy state
6 | CC(=O)OCC1OC(OC2C(COC(C)=O)OC(OC(C)=O)C(OC(C)=O)C2OC(C)=O)C(OC(C)=O)C(OC(C)=O)C1OC(C)=O (stereo not drawn) [α-Cellobiose octaacetate, reference compound] | 65 | – | – | COMMENT: glass formation / glass stability above ambient temperature [2]: Poor glass former
7 | CC(C)(C)CC(=O)OC[C@H]1O[C@H](O[C@H]2O[C@H](COC(=O)CC(C)(C)C)[C@@H](OC(=O)CC(C)(C)C)[C@H](OC(=O)CC(C)(C)C)[C@H]2OC(=O)CC(C)(C)C)[C@H](OC(=O)CC(C)(C)C)[C@@H](OC(=O)CC(C)(C)C)[C@@H]1OC(=O)CC(C)(C)C [Trehalose octa-3,3-dimethylbutyrate] | 42 | 46 | 45 | release of diltiazem hydrochloride (DZM) from single HDC formulation ([4]; 10% loading, compared to trehalose octaacetate formulation (FIG. 1)): much slower release; release of fluticasone propionate from single HDC formulation [4]: much slower release
8 | Trehalose dipropanoate hexaacetate | – | 38 | 44 | –
9 | Trehalose hexapivalate | 86 | 86 | – | Tg (° C.) with active incorporated ([3]; polypeptide active (insulin, 10% loading) incorporated by lyophilization from dimethylsulfoxide): 76.5 °C
10 | CC(C)C(=O)OCC1OC(OC2C(COC(=O)C(C)C)OC(OC(=O)C(C)C)C(OC(=O)C(C)C)C2OC(=O)C(C)C)C(OC(=O)C(C)C)C(OC(=O)C(C)C)C1OC(=O)C(C)C (stereo not drawn) [Cellobiose octaisobutyrate] | – | – | – | COMMENT: glass formation / glass stability above ambient temperature [2]: very hard to quench to glass
11 | CC(=O)OC[C@H]1O[C@H](O[C@H]2O[C@H](COC(C)=O)[C@@H](OC(=O)CC(C)(C)C)[C@H](OC(=O)CC(C)(C)C)[C@H]2OC(=O)CC(C)(C)C)[C@H](OC(=O)CC(C)(C)C)[C@@H](OC(=O)CC(C)(C)C)[C@@H]1OC(=O)CC(C)(C)C [Trehalose 6,6′-diaacetate hexa-3,3-dimethylbutyrate] | 44 | – | – | stability of the glassy state [5]: the glass stability is reduced
